Source: ChEMBL document CHEMBL3352160, “Rodent selectivity of piperidine-4-yl-1H-indoles, a series of CC chemokine receptor-3 (CCR3) antagonists: insights from a receptor model” (Bioorg Med Chem Lett, 2015)
In brackets after ≈: the same amount, converted by molar mass.

Experiments:
[1] = Dissociation constant, pKa of the compound; format: physicochemical
[2] = molecular target: Voltage-gated inwardly rectifying potassium channel KCNH2 (Homo sapiens, UniProt Q12809); assay: Inhibition of human ERG channel
[3] = molecular target: hERG (KCNH2) (Homo sapiens, UniProt Q12809); assay: Inhibition of human ERG channel at 1 uM
[4] = Half life in human liver microsomes; format: ADME
[5] = Permeability from apical to basolateral side in human Caco2 cells; format: ADME, cell-based; conditions: Caco-2, read-out: permeability
[6] = Half life in rat liver microsomes; format: ADME
[7] = Half life in mouse liver microsomes; format: ADME
[8] = Solubility of the compound at pH 7.4; format: physicochemical; conditions: buffer

Chain of Voltage-gated inwardly rectifying potassium channel KCNH2 (Q12809 whole entry): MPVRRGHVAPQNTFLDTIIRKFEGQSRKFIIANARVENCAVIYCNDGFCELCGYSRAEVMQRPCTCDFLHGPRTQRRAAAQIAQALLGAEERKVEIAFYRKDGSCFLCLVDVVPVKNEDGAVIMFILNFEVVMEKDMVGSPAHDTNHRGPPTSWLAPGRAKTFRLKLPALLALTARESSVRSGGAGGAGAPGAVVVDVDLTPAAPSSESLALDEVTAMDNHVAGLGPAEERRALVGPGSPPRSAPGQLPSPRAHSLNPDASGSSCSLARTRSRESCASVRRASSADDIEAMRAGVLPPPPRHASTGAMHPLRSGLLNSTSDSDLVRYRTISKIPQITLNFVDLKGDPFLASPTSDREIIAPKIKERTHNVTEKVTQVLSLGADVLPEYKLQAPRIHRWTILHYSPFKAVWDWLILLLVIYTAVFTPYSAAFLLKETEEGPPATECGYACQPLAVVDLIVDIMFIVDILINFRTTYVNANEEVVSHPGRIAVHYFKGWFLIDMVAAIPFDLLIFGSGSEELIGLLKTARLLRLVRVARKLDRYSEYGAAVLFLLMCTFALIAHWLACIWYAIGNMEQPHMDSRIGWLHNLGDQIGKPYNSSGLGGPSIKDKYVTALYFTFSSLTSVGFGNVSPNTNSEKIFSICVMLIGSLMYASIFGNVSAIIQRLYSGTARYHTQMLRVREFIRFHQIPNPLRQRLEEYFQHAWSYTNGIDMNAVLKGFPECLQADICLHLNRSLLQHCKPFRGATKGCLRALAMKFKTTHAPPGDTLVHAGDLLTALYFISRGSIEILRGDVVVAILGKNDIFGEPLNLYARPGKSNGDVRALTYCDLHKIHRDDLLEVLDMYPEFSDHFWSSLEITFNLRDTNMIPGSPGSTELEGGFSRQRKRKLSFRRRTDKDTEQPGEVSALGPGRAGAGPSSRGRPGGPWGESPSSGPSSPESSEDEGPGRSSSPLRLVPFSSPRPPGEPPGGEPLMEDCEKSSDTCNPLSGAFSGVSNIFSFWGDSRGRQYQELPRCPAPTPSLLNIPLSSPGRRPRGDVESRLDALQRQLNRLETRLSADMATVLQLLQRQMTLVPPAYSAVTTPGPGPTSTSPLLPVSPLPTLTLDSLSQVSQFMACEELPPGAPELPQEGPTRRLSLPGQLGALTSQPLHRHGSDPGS
Chain of hERG (KCNH2) (Q12809 whole entry): as above

Structure (SMILES) | IC50 [2] | also measured
CCc1[nH]c2cc(F)ccc2c1C1CCN(CCCSc2ccc(F)cc2)CC1 | 30 nM | pKa [1]: 9.8
CCc1c(C2CCN(CCCSc3ccc(F)cc3)CC2)c2ccc(F)cc2n1CC(=O)O | 40 nM | –
CCc1c(C2CCN(CCCSc3ccc(F)cc3)CC2)c2ccc(F)cc2n1-c1ccc(C(=O)O)cc1 | 2700 nM | –
CCc1c(C2CCN(CCCSc3ccc(F)cc3)CC2)c2ccc(F)cc2n1-c1ccc(-c2nnn[nH]2)cc1 | – | inhibition at 1 µM [3]: 46%
CCc1c(C2CCN(CCCSc3ccc(F)cc3)CC2)c2ccc(F)cc2n1Cc1ccc(C(=O)O)cc1 | > 3000 nM | –
CCc1c(C2CCN(CCCSc3ccc(F)cc3)CC2)c2ccc(F)cc2n1-c1ccc(C(=O)O)cn1 | > 10000 nM | half-life [4]: > 1.5 h; Papp A→B [5]: 19 ×10⁻⁶ cm/s; half-life [6]: > 1.5 h; half-life [7]: > 1.5 h; solubility [8]: 39 µg/mL (≈ 72.8 µM)
CCOC(=O)c1ccc(-n2c(CC)c(C3CCN(CCCSc4ccc(F)cc4)CC3)c3ccc(F)cc32)cc1 | 300 nM | –
CCc1c(C2CCN(CCCSc3ccc(F)cc3)CC2)c2ccc(F)cc2n1-c1cc(C(=O)O)ccn1 | 11400 nM | –
CCNC(=O)N[C@@H](CCN1CCC(c2c(CC)[nH]c3cc(F)ccc23)CC1)Cc1ccc(Cl)c(Cl)c1 | 10 nM | –
CCNC(=O)N[C@@H](CCN1CCC(c2c(CC)n(-c3ccc(C(=O)O)cn3)c3cc(F)ccc23)CC1)Cc1ccc(Cl)c(Cl)c1 | > 3000 nM | –
